Patent publication US20240287046A1, “COMPOUNDS AND RADIOLIGANDS FOR TARGETING NEUROTENSIN RECEPTOR AND USES THEREOF” (Full-Life Technologies HK Limited, priority 2022, published 2024)

Tested on: ASPC-1 tumor-bearing mice
Assay: Biodistribution of radionuclide labeled complexes in ASPC-1 tumor-bearing mice
Format: in vivo, BALB/c nude mice
Description: The BALB/c nude mice (Charles River, Beijing) were utilized to establish the xenografted model for biodistribution study. All animal care and experimental procedure were performed by following the animal protocols approved by the ethics committee of China Institute of Radiation Protection.
Briefly, each mouse was inoculated with approximately 4×10^6 ASPC-1 cells (human pancreatic cancer cell line) or HT-29 cells (human colorectal adenocarcinoma cell line) expressing human NTSR-1 by subcutaneous injection at rear flank. After inoculation, the xenografted tumors were allowed to grow for ˜2-4 weeks till the tumor weight reached to about 0.05 to 0.50 g (0.20 g in average).
Biodistribution studies were performed by administrating the radionuclide labeled test compound at a dose of ˜30-50 μCi (100 μL in 0.9% NaCl, ˜1.11-1.85 MBq, with specific activity 30-250 μCi/nmol) to each animal through tail vein injection.
At different time points after the administration, the mice treated with each compound were euthanized. The tissues and organs of the animals in each group were collected, excised, weighed, and analyzed in a PerkinElmer 2480 WIZARD2γ counter, and the percent injected dose (% ID) and % ID/g of each organ or tissue were calculated.

COc1cccc(OC)c1-c1cc(C(=O)NC2(C(=O)O)C3CC4CC(C3)CC2C4)nn1-c1ccc(NCCCN(C)CCCNC(=O)CN2CCN(CC(=O)[O-])CCN(CC(=O)[O-])CCN(CC(=O)[O-])CC2)cc1C(C)C.[177Lu+3] (stereo not shown) [^177Lu-I-2]
tumor AUC over 72 hours compared to ^177Lu—C2: significantly higher tumor AUC
% ID/g (4 h) Blood (Blood, 4 h): 9.23 ± 0.36 % ID/g
% ID/g (24 h) Blood (Blood, 24 h): 0.28 ± 0.03 % ID/g
% ID/g (72 h) Blood (Blood, 72 h): 0.07 ± 0.01 % ID/g
% ID/g (4 h) Femur (Femur, 4 h): 1.4 ± 0.79 % ID/g
% ID/g (24 h) Femur (Femur, 24 h): 0.39 ± 0.1 % ID/g
% ID/g (72 h) Femur (Femur, 72 h): 0.111 ± 0.09 % ID/g
% ID/g (4 h) Heart (Heart, 4 h): 3.78 ± 0.03 % ID/g
% ID/g (24 h) Heart (Heart, 24 h): 0.4 ± 0.13 % ID/g
% ID/g (72 h) Heart (Heart, 72 h): 0.18 ± 0.1 % ID/g
% ID/g (4 h) Intestine (Intestine, 4 h): 2.00 ± 0.18 % ID/g
% ID/g (24 h) Intestine (Intestine, 24 h): 1.00 ± 0.18 % ID/g
% ID/g (72 h) Intestine (Intestine, 72 h): 0.55 ± 0.11 % ID/g
% ID/g (4 h) Kidney (Kidney, 4 h): 2.03 ± 0.38 % ID/g
% ID/g (24 h) Kidney (Kidney, 24 h): 2.39 ± 0.77 % ID/g
% ID/g (72 h) Kidney (Kidney, 72 h): 1.69 ± 1.04 % ID/g
% ID/g (4 h) Liver (Liver, 4 h): 5.15 ± 1.65 % ID/g
% ID/g (24 h) Liver (Liver, 24 h): 1.66 ± 0.55 % ID/g
% ID/g (72 h) Liver (Liver, 72 h): 1.02 ± 0.44 % ID/g
% ID/g (4 h) Lung (Lung, 4 h): 1.77 ± 0.37 % ID/g
% ID/g (24 h) Lung (Lung, 24 h): 0.39 ± 0.11 % ID/g
% ID/g (72 h) Lung (Lung, 72 h): 0.17 ± 0.02 % ID/g
% ID/g (4 h) Muscle (Muscle, 4 h): 1.48 ± 1.16 % ID/g
% ID/g (24 h) Muscle (Muscle, 24 h): 0.23 ± 0.14 % ID/g
% ID/g (72 h) Muscle (Muscle, 72 h): 0.05 ± 0.03 % ID/g
% ID/g (4 h) Pancreas (Pancreas, 4 h): 0.54 ± 0.14 % ID/g
% ID/g (24 h) Pancreas (Pancreas, 24 h): 0.32 ± 0.15 % ID/g
% ID/g (72 h) Pancreas (Pancreas, 72 h): 0.08 ± 0.02 % ID/g
% ID/g (24 h) Spleen (Spleen, 24 h): 1.07 ± 0.31 % ID/g
% ID/g (72 h) Spleen (Spleen, 72 h): 0.19 ± 0.03 % ID/g
% ID/g (4 h) Stomach (Stomach, 4 h): 0.86 ± 0.1 % ID/g
% ID/g (24 h) Stomach (Stomach, 24 h): 0.43 ± 0.27 % ID/g
% ID/g (72 h) Stomach (Stomach, 72 h): 0.22 ± 0.1 % ID/g
% ID/g (4 h) Tumor (Tumor, 4 h): 23.11 ± 18.15 % ID/g
% ID/g (24 h) Tumor (Tumor, 24 h): 25.61 ± 1.69 % ID/g
% ID/g (72 h) Tumor (Tumor, 72 h): 15.44 ± 5.61 % ID/g
ratio of tumor AUC verse normal organ AUC (compared to ^177Lu—C2): significantly improved
